Assay results as given in the RepoRT retention time repository (doi:10.1021/acs.analchem.2c02893).

Experiment: RP, Thermo Scientific Acclaim RSLC 120 C18, 100 × 2.1 mm, 2.2 µm, 30 °C, 0.2 mL/min, estimated dead time 1.1 min; A: 90% water + 10% methanol + 0.01% formic acid + 5 mM ammonium formate, pH 3.61; B: methanol + 0.01% formic acid + 5 mM ammonium formate, pH 3.61; gradient (min/%B) 0/1 1/1 2/39 13/99.9 15/99.9 15.1/1 20.1/1
Settings: stereoisomer not certain

Row | SMILES | LC retention time
1 | CNC(=O)Oc1cc(C)c(N(C)C)c(C)c1 [Mexacarbate] | 9.3 min
2 | CN(C)Cc1nnc2n1-c1ccc(Cl)cc1C(c1ccccc1)=NC2 [Adinazolam] | 8.28 min
3 | CC(C1CC1)C(O)(Cn1cncn1)c1ccc(Cl)cc1 (stereo unspecified) [Cyproconazole] | 9.89 min
4 | O=C(Oc1cccc2ccccc12)c1cn(CCCCCF)c2ccccc12 [NM-2201] | 12.4 min
5 | CC(=O)c1ccc2c(c1)N(CCCN(C)C)c1ccccc1S2 [Acepromazine] | 7.47 min
6 | O=[N+]([O-])c1ccc(Oc2ccc(Cl)cc2Cl)cc1 [Nitrofen] | 12.1 min
7 | C=CCc1ccccc1OCC(O)CNC(C)C (stereo unspecified) [Alprenolol] | 6.71 min
8 | Cc1cccc(C)c1N(Cn1cccn1)C(=O)CCl [Metazachlor] | 8.11 min
9 | CCCSc1ccc2nc(NC(=O)OC)[nH]c2c1 [Albendazole] | 9.19 min
10 | O=C(O)Cc1c[nH]c2ccc(O)cc12 [5-Hydroxyindole-3-acetic acid] | 3.93 min
11 | C=C(Cl)CSC(=S)N(CC)CC [Vegadex (Sulfallate)] | 11.1 min
12 | CCC1C2CC3C4N(C)c5ccccc5C45CC(C2C5O)[N+]3(CC(O)CN(CC)CC)C1O (stereo unspecified) [Detajmium] | 4.62 min
13 | CCCCCCC(C)(C)c1cc(O)c2c(c1)OC(C)(C)C1CC=C(CO)CC21 (stereo unspecified) [HU-210] | 13.5 min
14 | CCOCCN(C(=O)CCl)C(=C(C)C)c1ccccc1 [Pethoxamide] | 10.1 min
15 | CC(Cc1ccccc1)NCCC(c1ccccc1)c1ccccc1 (stereo unspecified) [Prenylamine] | 8.89 min
16 | CC(O)CCCn1cc(C(=O)c2cccc3ccccc23)c2ccccc21 (stereo unspecified) [JWH-018-M-N-4-OH-Pentyl] | 10.1 min
17 | CN(C)C(=O)C(c1ccccc1)c1ccccc1 [Diphenamide] | 8.57 min
18 | O=C(Nc1cccc2cccnc12)c1nn(CCCCCF)c2ccccc12 [THJ-5F] | 12.5 min
19 | COP(=O)(OC)OC(C)=CC(=O)N(C)C [Dicrotophos] | 4.5 min

Row | SMILES | LC retention time
20 | CCCOP(=S)(OCCC)OP(=S)(OCCC)OCCC [Aspon] | 12.9 min
21 | CN1C(=O)CN=C(C2=CCCCC2)c2cc(Cl)ccc21 [Tetrazepam] | 10.5 min
22 | COc1cc(OC)nc(NC(=O)NS(=O)(=O)c2ncccc2OCC(F)(F)F)n1 [Trifloxysulfuron] | 8.11 min
23 | CCCCCn1nc(C(=O)NC(C(N)=O)C(C)(C)C)c2ccccc21 (stereo unspecified) [ADB-PINACA] | 11.2 min
24 | O=C(NC(=O)c1c(F)cccc1F)Nc1ccc(Cl)c(Oc2ncc(C(F)(F)F)cc2Cl)c1 [Fluazuron] | 12.7 min
25 | CCSCCSP(=S)(OC)OC [Thiometon] | 10.2 min
26 | CCCCN(CC)C(=O)SCCC [Pebulate] | 11.5 min
27 | O=c1[nH]c(Cl)c(Cl)cc1Cl [3.5.6-Trichloro-2-pyridinol] | 8.96 min
28 | CCOP(=S)(OCC)SCn1nnc2ccccc2c1=O [Azinphos-ethyl] | 10.2 min
29 | CCCCCCCCn1sccc1=O [2-Octyl-4-isothiazolin-3-one] | 10.3 min
30 | COCC1CN=C(c2ccccc2Cl)c2cc(Br)ccc2N1C (stereo unspecified) [Metaclazepam] | 11.6 min
31 | CN(C)c1nc(=O)n(C2CCCCC2)c(=O)n1C [Hexazinone] | 7.09 min
32 | CC12CCC3C(CC=C4CC(O)CCC43C)C1CCC2=O (stereo unspecified) [Dhydroepiandrosterone (DHEA) / Androstenolone] | 10.2 min
33 | CC(Cc1ccccc1)NCCC#N (stereo unspecified) [Fenproporex (NARL)] | 4.14 min
34 | CCOP(=S)(OCC)SCn1c(=O)oc2cc(Cl)ccc21 [Phosalone] | 11.3 min
35 | C[N+]1(C)C2CC(OC(=O)C(CO)c3ccccc3)CC1C1OC12 (stereo unspecified) [Scopolamine-Methyl] | 3.88 min
36 | c1nc[nH]n1 [1,2,4-Triazole] | 1.56 min
37 | CON=C(C(=O)OC)c1ccccc1COc1ccccc1C [Kresoxim-methyl] | 10.8 min
38 | CCN(CC)c1nc(C)cc(OP(=S)(OC)OC)n1 [Pirimiphos-methyl] | 11.3 min

The remaining lines, values ahead:

Row | LC retention time | SMILES
39 | 3.21 min | CCN(CC)CCOC(=O)c1ccc(N)cc1 [Procaine]
40 | 2.94 min | CCN1CCCC1CNC(=O)c1cc(S(N)(=O)=O)ccc1OC (stereo unspecified) [Sulpiride]
41 | 3.91 min | CC(C)(C)NCC(O)COc1cccc2c1CCC(=O)N2 (stereo unspecified) [Carteolol]
42 | 8.47 min | COC(=O)C1C2CC3c4[nH]c5cc(OC)ccc5c4CCN3CC2CC(OC(=O)c2cc(OC)c(OC)c(OC)c2)C1OC (stereo unspecified) [Reserpine]
43 | 7.08 min | CC(C(=O)O)c1ccc(CC(C)(C)O)cc1 (stereo unspecified) [Ibuprofen- 2-Hydroxy]
44 | 10.7 min | CC(=O)C1CCC2C3C=CC4=CC(=O)CCC4(C)C3CCC12C (stereo unspecified) [Dydrogesterone]
45 | 8.28 min | COCCCCC(=NOCCN)c1ccc(C(F)(F)F)cc1 [Fluvoxamine]
46 | 10.7 min | CN(C)C(=O)SCCCCOc1ccccc1 [Fenothiocarb]
47 | 10.1 min | O=S(=O)(Oc1ccc(Cl)cc1)c1ccccc1 [Fenson]
48 | 7.69 min | CN(C)CCCN1c2ccccc2Sc2ccccc21 [Promazine]
49 | 3.43 min | CNC(=C[N+](=O)[O-])NCCSCc1ccc(C[N+](C)(C)[O-])o1 [Ranitidine-N-oxide]
50 | 8.92 min | CC(=O)Oc1ccc(C(c2ccc(OC(C)=O)cc2)c2ccccn2)cc1 [Bisacodyl]
51 | 2.99 min | COc1ccc2c3c1OC1CC(O)C=CC31CCN(C)C2 (stereo unspecified) [Galantamine]
52 | 9.48 min | CC(C)OC(=O)NC(C(=O)NC(C)c1nc2ccc(F)cc2s1)C(C)C (stereo unspecified) [Benthiavalicarb-isopropyl]
53 | 1.79 min | NCC1CCC(C(=O)O)CC1 (stereo unspecified) [Tranexamic acid]
54 | 7.8 min | OC(CCN1CCCC1)(c1ccccc1)C1CCCCC1 (stereo unspecified) [Procyclidine]
55 | 4.75 min | COc1ncnc(NS(=O)(=O)c2ccc(N)cc2)c1OC [Sulfadoxine]
56 | 3.26 min | COc1nc(C)nc(Cl)c1NC1=NCCN1 [Moxonidine]
57 | 11.6 min | CCCCC(CC)CN1C(=O)C2C3C=CC(C3)C2C1=O (stereo unspecified) [MGK-264]
58 | 5.49 min | CC(C)NCC(O)COc1cccc2[nH]c3ccccc3c12 (stereo unspecified) [Carazolol]
59 | 9.04 min | CC1(C)OC2CC3C4CCC5=CC(=O)C=CC5(C)C4C(O)CC3(C)C2(C(=O)CO)O1 (stereo unspecified) [Desonide]
60 | 10.5 min | CCCOc1ccc(S(=O)(=O)N2CCN(CC)CC2)cc1-c1nc(=S)c2c([nH]1)c(CCC)nn2C [Propoxyphenyl Thiohomosidenafil]
61 | 11.1 min | CC(C)(c1ccc(OCC(O)CCl)cc1)c1ccc(OCC2CO2)cc1 (stereo unspecified) [Bisphenol<U+00A0>A (3-chloro-2-hydroxypropyl) glycidyl ether]
62 | 4.24 min | CCN(CC)CC(C)(C)COC(=O)c1ccc(N)cc1 [Dimethocain]

Row | LC retention time | SMILES
63 | 6.08 min | CCCCCCCC[N+](C)(C)C [Trimethyloctylammonium]
64 | 13.4 min | CCCCCCCCCCOc1cc2c(=O)c(C(=O)OCC)c[nH]c2cc1OCC [Decoquinate]
65 | 6.72 min | CC(C)(C)N1CCC(c2ccccc2)(c2ccccc2)CC1 [Budipine]
66 | 4.21 min | Cc1nnc(NS(=O)(=O)c2ccc(N)cc2)s1 [Sulfamethizole]
67 | 8.8 min | CN1CCN(CCCN2c3ccccc3Sc3ccccc32)CC1 [Perazine]
68 | 5.37 min | O=C(NC1CCN(CCc2c[nH]c3ccccc23)CC1)c1ccccc1 [Indoramin]
69 | 6.81 min | NS(=O)(=O)c1cc2c(cc1Cl)NC(CSCc1ccccc1)=NS2(=O)=O [Benzthiazide]
70 | 5.06 min | OC(Cn1cncn1)(Cn1cncn1)c1ccc(F)cc1F [Fluconazole]
71 | 5.74 min | CC(CCc1ccccc1)NCC(O)c1ccc(O)c(C(N)=O)c1 (stereo unspecified) [Labetalol]
72 | 3.63 min | Nc1ccc(S(=O)(=O)Nc2nccs2)cc1 [Sulfathiazole]
73 | 6.89 min | S=c1[nH]c2ccccc2s1 [Benzothiazole-Mercapto]
74 | 13 min | Clc1ccc(COC(Cn2ccnc2)c2ccc(Cl)cc2Cl)c(Cl)c1 (stereo unspecified) [Miconazole]
75 | 11 min | CCC(=C(c1ccccc1)c1ccc(OCCN(C)C)cc1)c1ccccc1 [Tamoxifen]
76 | 1.38 min | CNCC(O)c1ccc(O)c(O)c1 (stereo unspecified) [Epinephrine]
77 | 4.39 min | Cc1cc(NS(=O)(=O)c2ccc(N)cc2)on1 [Sulfamethoxazole (Impurity F)]
78 | 5.44 min | COC(=O)c1ccccc1C(=O)c1ccc(OCCN2CCCCC2)cc1 [Pitofenone]
79 | 7.63 min | C[N+]1([O-])CCN2c3ccccc3Cc3ccccc3C2C1 (stereo unspecified) [Mianserine-N-oxide]
80 | 7.49 min | CCCCc1ncc(C=C(Cc2cccs2)C(=O)O)n1Cc1ccc(C(=O)O)cc1 [Eprosartan]
81 | 7.91 min | CC(CC(c1ccccc1)c1ccccc1)NC(C)(C)C (stereo unspecified) [Terodiline]
82 | 4.24 min | COCCOc1c(OC)cc(Cc2cnc(N)nc2N)cc1OC [Tetroxoprim]
83 | 6.99 min | Cc1cc(C(C)(C)C)c(O)c(C)c1CC1=NCCN1 [Oxymetazoline]
84 | 6.83 min | CC12CCC3c4ccc(O)cc4CCC3C1CC(O)C2O (stereo unspecified) [E3  estriol (1-3-5(10)-estratrien-3 16-17-triol)]
85 | 12 min | CSc1nc2cc(Oc3cccc(Cl)c3Cl)c(Cl)cc2[nH]1 [Triclabendazole]
86 | 9.19 min | O=C1NCN(c2ccccc2)C12CCN(CCCC(c1ccc(F)cc1)c1ccc(F)cc1)CC2 [Fluspirilen]
